Assay results taken from patent US20230074545A1, “TREATMENT OF CANCER WITH CDK12/13 INHIBITORS” (Kinnate Biopharma Inc., priority 2019, published 2023).
Like-named read-outs stand apart in the source and are kept apart here.

Tests used:
CDK12 = molecular target: T1, CDK12 (Homo sapiens, UniProt Q9NYV4); experiment: Radiometric kinase assay (33PanQinase); format: biochemical; details: read-out: Inhibition of CDK Activity (molar inhibition in a radiometric assay)
T1 construct: either as full-length or enzymatically active fragments; purchased ProQinase GmbH (Reaction Biology)
Method: (§1) The compounds 1-5 (see Table 1) were assayed for kinase activity at ProQinase (ProQinase GmbH, Reaction Biology; Freiburg, Germany) using their commercially available radiometric kinase assay services. Briefly, the compounds were provided as solids and were dissolved to 1×10^−03 M/100% DMSO stock solutions on the day of assay. All protein kinases were provided by ProQinase and were expressed in Sf9 insect cells or in E. coli as recombinant GST-fusion proteins or His-tagged proteins, either as full-length or enzymatically active fragments. All kinases were produced from human cDNAs and purified by either GSH-affinity chromatography or immobilized metal. The purity of the protein kinases was examined by SDS-PAGE/Coomassie staining, the identity was checked by mass spectroscopy. A radiometric protein kinase assay (^33PanQinase® Activity Assay) was used for measuring the kinase activity of the protein kinase. All kinase assays were performed in 96-well FlashPlates™ from PerkinElmer (Boston, Mass., USA) in a 50 microliter reaction volume. The reaction cocktail was pipetted in four steps in the following order: 1) 25 microliter of assay buffer (standard buffer/[gamma-^33P]-ATP); 2) 10 microliter of ATP solution (in H2O); 3) 5 microliter of test compound (in 10% DMSO); 4) 10 microliter of enzyme/substrate mixture.
(§2) As a parameter for assay quality, the Z′-factor (Zhang et al., J. Biomol. Screen. 2: 67-73, 1999) for the low and high controls of each assay plate (n=8) was used. ProQinase's criterion for repetition of an assay plate is a Z′-factor below 0.4.

CDK13 = molecular target: T2, CDK13 (Homo sapiens, UniProt Q14004); experiment: Radiometric kinase assay (33PanQinase); format: biochemical; details: read-out: Inhibition of CDK Activity (molar inhibition in a radiometric assay)
T2 construct: either as full-length or enzymatically active fragments; purchased ProQinase GmbH (Reaction Biology)
Method: as §1, §2

CDK2 = molecular target: T3, CDK2 (Homo sapiens, UniProt P24941); experiment: Radiometric kinase assay (33PanQinase); format: biochemical; details: read-out: Inhibition of CDK Activity (molar inhibition in a radiometric assay)
T3 construct: either as full-length or enzymatically active fragments; purchased ProQinase GmbH (Reaction Biology); host or cells: Sf9 insect cells or E. coli
Method: as §1, §2

CDK7 = molecular target: T4, CDK7 (Homo sapiens, UniProt P50613); experiment: Radiometric kinase assay (33PanQinase); format: biochemical; details: read-out: Inhibition of CDK Activity (molar inhibition in a radiometric assay)
T4 construct: either as full-length or enzymatically active fragments; purchased ProQinase GmbH (Reaction Biology); host or cells: Sf9 insect cells or E. coli
Method: as §1, §2

CDK9 = molecular target: T5, CDK9 (Homo sapiens, UniProt P50750); experiment: Radiometric kinase assay (33PanQinase); format: biochemical; details: read-out: Inhibition of CDK Activity (molar inhibition in a radiometric assay)
T5 construct: either as full-length or enzymatically active fragments; purchased ProQinase GmbH (Reaction Biology); host or cells: Sf9 insect cells or E. coli
Method: as §1, §2

OVCAR-3 cells = experiment: OVCAR-3 cell proliferation (CellTiter-Glo); format: cell-based; details: Homo sapiens, read-out: Inhibition of proliferation of OVCAR3 cells (IC50 in M)
Source text: OVCAR-3 was used as the cell line to model for ovarian cancer in vitro and in vivo. This cell line was obtained from ATCC (Catalog #HTB-161) and is an adenocarcinoma line from the malignant ascites of a patient with progressive adenocarcinoma of the ovary and embodies a preclinical model of high-grade, serous ovarian cancer (HGSOC). OVCAR-3 has been deemed an appropriate model system in which to study drug resistance in ovarian cancer, and the presence of hormone receptors should be useful for the evaluation of hormonal therapy. OVCAR-3 is resistant to clinically relevant concentrations of adriamycin, melphalan and cisplatin.
(§3) Compounds 1-5 were tested at different concentrations (from 4 μM to 126.4 pM; 0.5 log serial dilutions) for their ability to inhibit the proliferation of OVCAR-3 cells. Cells were grown in ATCC-formulated RPMI-1640 Medium (ATCC 30-2001)+10% FBS. The cells were cultured at 37° C. in a humidified chamber in the presence of 5% CO2. Proliferation assays were conducted over a 72 hour time period.
(§4) Cells were cultured and maintained as described above, with cells always fed on the day prior to assay. Assays were run with a 2 hour compound exposure followed by a washout and then a 72 hour proliferation time or exposed to the test compounds for 72 hours with no washout of compound. DMSO was used as a control in all wells not receiving test compound and DMSO wells were used for plate normalization. Proliferation and survival of cells was quantified based on the amount of total ATP following cell lysis as determined by using a standard assay kit used according to manufacturer's instructions. Experiments were performed in the same media used by each cell type for growth and maintenance. Cells (5×10^4) were plated in 96 well plates for compound exposure. CellTiter-Glo® (Promega Corporation, Madison, Wis. USA) was used to assess the anti-proliferative effects of the compounds following manufacturer's directions and utilizing the reagents supplied with the CellTiter-Glo® kit.

HCC70 cells = experiment: HCC70 cell proliferation (CellTiter-Glo); format: cell-based; details: Homo sapiens, read-out: Inhibition of Proliferation of HCC70 Cells (IC50 in M)
Method: HCC70 was the cell line used as a model of triple-negative breast cancer (TNBC). This cell line was obtained from ATCC and was initiated from a primary ductal carcinoma in 1992 (Catalog #CRL-2315; mammary gland primary ductal carcinoma). The HCC-70 tumor cell line was maintained in vitro as a monolayer culture in RPMI-1640 medium supplemented with 10% heat inactivated fetal bovine serum at 37° C. in an atmosphere of 5% CO2 in air.
as §3, with “Representative compounds” for “Compounds 1-5”, “HCC70” for “OVCAR-3”
as §4

RNA polymerase II [1] = experiment: Ex vivo RNA polymerase II phosphorylation (pS2/S2) in human PBMCs; format: cell-based; details: PBMC, hPBMCs, 2 hours
Method: (§5) The ability of the compounds to inhibit phosphorylation of peripheral blood mononuclear cells (PBMCs) was analyzed ex vivo. Compounds 1 and 4 were dosed at concentrations between 4 μM to 126.4 pM (0.5 log serial dilutions) for 2 hours. The amount of phosphorylated RNA polymerase II and the total amount of RNA polymerase II was analyzed. The values were normalized by taking the ratio of the phosphorylated RNA polymerase II to the total RNA polymerase II (pS2/S2).

RNA polymerase II [2] = experiment: Ex vivo RNA polymerase II phosphorylation (pS2/S2) in cynomolgus PBMCs; format: cell-based; details: Macaca fascicularis, PBMC; moPBMCs, 2 hours
Method: as §5

non-CDK12/13 kinases = experiment: Radiometric kinase panel, summary; format: biochemical, human; details: 1 μM
Method: as §1, with “The reaction cocktail was pipetted in four steps in the following order: 1) 25 microliter of assay buffer (standard buffer/[gamma-^33P]-ATP); 2) 10 microliter of ATP solution (in H2O); 3) 5 microliter of test compound (in 10% DMSO); 4) 10 microliter of enzyme/substrate mixture.” left out
Compound 4 was analyzed for selectivity against a panel of other kinases at ProQinase using their commercially available radiometric kinase assay services and the methods described in Example 1.

[3] = OVCAR-3 (no washout), exposed for 72 hours
[4] = OVCAR-3 (w/washout), 2 hour exposure, washout, 72 hour proliferation
[5] = HCC70 (no washout), exposed for 72 hours
[6] = HCC70 (w/washout), 2 hour exposure, washout, 72 hour proliferation

T1 sequence (Q9NYV4 whole entry, the tested form may be a part): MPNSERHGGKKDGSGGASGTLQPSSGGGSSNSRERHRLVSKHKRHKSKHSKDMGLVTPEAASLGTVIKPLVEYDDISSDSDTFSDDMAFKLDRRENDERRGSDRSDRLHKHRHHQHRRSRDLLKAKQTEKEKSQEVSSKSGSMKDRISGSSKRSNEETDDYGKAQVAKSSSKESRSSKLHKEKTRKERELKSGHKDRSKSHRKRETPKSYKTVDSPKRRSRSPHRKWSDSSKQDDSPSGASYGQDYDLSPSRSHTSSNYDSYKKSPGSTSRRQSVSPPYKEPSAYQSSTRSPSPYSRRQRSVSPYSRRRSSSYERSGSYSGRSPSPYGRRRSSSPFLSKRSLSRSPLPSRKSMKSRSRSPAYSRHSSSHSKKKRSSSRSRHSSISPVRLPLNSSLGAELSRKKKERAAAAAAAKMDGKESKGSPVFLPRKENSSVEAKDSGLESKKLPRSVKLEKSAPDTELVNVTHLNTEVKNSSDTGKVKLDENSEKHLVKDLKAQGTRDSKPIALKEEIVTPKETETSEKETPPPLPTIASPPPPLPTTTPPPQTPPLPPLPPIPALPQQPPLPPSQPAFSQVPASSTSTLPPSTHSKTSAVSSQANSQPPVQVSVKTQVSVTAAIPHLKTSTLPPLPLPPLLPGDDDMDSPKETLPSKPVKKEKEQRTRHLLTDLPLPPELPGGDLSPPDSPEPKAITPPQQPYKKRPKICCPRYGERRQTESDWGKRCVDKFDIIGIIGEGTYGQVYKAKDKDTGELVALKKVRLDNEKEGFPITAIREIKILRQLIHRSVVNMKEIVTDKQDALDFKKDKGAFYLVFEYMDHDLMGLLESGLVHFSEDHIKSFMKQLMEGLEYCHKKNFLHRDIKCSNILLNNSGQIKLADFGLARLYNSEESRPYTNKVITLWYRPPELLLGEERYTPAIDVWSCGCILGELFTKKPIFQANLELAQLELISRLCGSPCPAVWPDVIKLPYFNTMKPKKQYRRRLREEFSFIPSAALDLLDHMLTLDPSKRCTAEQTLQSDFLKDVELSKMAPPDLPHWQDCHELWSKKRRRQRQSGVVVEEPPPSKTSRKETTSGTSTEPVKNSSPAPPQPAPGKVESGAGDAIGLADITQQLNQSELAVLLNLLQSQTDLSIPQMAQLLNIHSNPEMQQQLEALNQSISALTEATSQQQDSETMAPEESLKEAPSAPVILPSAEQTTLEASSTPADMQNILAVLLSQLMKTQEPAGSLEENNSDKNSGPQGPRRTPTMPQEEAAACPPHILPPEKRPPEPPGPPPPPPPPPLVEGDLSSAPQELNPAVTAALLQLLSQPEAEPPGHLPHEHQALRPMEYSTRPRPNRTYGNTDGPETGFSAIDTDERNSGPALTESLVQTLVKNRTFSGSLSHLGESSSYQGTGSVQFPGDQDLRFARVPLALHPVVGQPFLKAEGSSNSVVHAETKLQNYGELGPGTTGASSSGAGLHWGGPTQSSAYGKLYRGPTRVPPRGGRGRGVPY
T1 sequence (O75909 whole entry partner, the tested form may be a part): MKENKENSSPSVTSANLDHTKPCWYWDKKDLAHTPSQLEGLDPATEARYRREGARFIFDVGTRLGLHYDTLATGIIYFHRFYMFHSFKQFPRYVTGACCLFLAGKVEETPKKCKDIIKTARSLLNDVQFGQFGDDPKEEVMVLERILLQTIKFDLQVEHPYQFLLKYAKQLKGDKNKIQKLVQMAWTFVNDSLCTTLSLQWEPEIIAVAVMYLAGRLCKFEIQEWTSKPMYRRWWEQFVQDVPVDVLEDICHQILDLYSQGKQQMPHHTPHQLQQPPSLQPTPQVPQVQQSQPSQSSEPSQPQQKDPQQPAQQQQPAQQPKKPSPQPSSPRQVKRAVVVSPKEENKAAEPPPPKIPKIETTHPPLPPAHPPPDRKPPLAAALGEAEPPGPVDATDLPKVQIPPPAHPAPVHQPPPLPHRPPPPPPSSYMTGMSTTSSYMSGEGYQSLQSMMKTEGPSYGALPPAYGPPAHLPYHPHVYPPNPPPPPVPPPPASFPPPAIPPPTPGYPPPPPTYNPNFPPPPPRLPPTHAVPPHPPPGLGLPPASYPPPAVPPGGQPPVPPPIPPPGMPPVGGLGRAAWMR
T2 sequence (Q14004 whole entry, the tested form may be a part): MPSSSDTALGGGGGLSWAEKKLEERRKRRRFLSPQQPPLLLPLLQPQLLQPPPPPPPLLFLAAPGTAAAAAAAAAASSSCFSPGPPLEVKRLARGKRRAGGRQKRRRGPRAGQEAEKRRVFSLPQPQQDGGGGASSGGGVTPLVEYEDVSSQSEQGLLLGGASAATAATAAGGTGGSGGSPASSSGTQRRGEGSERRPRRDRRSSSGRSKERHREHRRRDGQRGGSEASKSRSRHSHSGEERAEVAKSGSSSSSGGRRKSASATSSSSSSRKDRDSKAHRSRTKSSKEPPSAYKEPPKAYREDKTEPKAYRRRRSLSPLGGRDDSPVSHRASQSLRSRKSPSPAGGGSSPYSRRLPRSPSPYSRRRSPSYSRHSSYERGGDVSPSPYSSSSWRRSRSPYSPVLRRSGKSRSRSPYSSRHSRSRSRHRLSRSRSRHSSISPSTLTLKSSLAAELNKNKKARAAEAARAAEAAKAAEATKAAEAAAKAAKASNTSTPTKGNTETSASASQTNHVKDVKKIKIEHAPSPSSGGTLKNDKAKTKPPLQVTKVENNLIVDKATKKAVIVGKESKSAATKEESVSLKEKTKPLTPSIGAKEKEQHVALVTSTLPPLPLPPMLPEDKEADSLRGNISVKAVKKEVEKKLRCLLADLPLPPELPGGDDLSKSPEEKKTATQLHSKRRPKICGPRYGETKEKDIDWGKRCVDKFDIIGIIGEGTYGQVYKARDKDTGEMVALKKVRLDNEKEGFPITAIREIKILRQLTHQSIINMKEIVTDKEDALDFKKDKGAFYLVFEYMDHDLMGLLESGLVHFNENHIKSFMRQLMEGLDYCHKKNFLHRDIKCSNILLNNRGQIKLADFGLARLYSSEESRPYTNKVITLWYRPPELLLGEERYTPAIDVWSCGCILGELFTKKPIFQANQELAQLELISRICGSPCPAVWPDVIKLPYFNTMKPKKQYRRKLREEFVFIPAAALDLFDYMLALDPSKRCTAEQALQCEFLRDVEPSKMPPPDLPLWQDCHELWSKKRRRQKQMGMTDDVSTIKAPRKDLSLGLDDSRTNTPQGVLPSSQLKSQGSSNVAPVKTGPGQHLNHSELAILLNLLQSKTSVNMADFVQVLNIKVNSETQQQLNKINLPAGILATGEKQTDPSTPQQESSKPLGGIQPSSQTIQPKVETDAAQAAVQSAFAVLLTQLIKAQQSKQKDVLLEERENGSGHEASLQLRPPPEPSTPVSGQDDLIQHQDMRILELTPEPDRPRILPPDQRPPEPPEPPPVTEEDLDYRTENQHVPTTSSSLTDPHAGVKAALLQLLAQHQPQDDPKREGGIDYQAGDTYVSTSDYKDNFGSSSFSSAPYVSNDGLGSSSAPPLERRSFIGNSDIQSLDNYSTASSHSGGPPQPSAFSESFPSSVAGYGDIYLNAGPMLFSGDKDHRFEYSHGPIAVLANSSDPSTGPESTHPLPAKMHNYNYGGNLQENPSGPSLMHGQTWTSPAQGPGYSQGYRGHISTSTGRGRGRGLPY
T2 sequence (O75909 whole entry partner, the tested form may be a part): as the sequence (O75909 whole entry partner, the tested form may be a part) above
T4 sequence (P50613 whole entry, the tested form may be a part): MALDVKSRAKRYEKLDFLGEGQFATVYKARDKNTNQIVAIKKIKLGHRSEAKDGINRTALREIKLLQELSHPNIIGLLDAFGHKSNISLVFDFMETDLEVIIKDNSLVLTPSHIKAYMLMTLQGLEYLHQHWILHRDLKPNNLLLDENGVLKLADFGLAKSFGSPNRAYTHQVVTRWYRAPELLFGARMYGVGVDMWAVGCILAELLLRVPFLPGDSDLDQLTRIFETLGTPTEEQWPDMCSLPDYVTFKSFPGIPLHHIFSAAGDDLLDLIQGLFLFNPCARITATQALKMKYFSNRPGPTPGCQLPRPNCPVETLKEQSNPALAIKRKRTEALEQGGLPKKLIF
T4 sequence (P51946 whole entry partner, the tested form may be a part): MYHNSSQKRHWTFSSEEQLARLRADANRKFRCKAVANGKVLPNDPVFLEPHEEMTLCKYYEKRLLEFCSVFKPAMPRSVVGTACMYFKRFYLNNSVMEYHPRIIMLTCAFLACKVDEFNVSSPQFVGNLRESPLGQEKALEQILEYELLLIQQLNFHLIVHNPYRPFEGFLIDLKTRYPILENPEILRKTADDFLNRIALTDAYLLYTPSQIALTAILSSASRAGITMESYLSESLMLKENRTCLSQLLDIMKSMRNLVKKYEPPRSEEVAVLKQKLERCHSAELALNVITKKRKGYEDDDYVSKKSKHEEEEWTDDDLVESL
T4 sequence (P51948 whole entry partner, the tested form may be a part): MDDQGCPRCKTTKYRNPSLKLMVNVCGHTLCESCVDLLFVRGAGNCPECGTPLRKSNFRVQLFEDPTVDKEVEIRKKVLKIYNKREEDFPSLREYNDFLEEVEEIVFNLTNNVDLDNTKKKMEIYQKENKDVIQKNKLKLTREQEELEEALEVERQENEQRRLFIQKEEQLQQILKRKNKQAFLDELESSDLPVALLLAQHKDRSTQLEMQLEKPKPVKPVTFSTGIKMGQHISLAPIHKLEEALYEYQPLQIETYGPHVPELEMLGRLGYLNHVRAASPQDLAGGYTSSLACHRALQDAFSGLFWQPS

Compound	IC50 (CDK12) [nM]	IC50 (CDK13) [nM]	IC50 (CDK2) [nM]	IC50 (CDK7) [nM]	IC50 (CDK9) [nM]	IC50 (OVCAR-3 cells; [3]) [nM]	IC50 (OVCAR-3 cells; [4]) [nM]	IC50 (HCC70 cells; [5]) [nM]	IC50 (HCC70 cells; [6]) [nM]	IC50 (RNA polymerase II [1]) [nM]	IC50 (RNA polymerase II [2]) [nM]	average percent of inhibition against non-CDK12/13 kinases (non-CDK12/13 kinases)
C=CC(=O)Nc1ccc(C(=O)N2CC[C@@H](Nc3ncc(Cl)c(OC)n3)C2)cc1 [Compound 1, (R)-N-(4-(3-((5-chloro-4-methoxypyrimidin-2-yl)amino)pyrrolidine-1-carbonyl)phenyl)acrylamide]	21.3	25.8	1150	1100	288	4.45	82.4	5.1	14.1	19.3	21.6	
C=CC(=O)Nc1ccc(C(=O)N2CC[C@@H](Nc3ncc(C#N)cn3)C2)cc1 [Compound 4, (R)-N-(4-(3-((5-cyanopyrimidin-2-yl)amino)pyrrolidine-1-carbonyl)phenyl)acrylamide]	131	293	7550	6960	3970	31	179	32.3	134	167	181	low average percent of inhibition
